Laboratory results as given in article PMC7497249, “Synthesis and Biological Screening of New Lawson Derivatives as Selective Substrate‐Based Inhibitors of Cytochrome bo3 Ubiquinol Oxidase from Escherichia coli” (Chemmedchem, 2020).
Values joined by “and” are separate entries in the source; they are usually repeats but may differ in a detail not shown here. Equal entries are not always repeated. Where two headings read alike, the source gives them in different places.

How the values were obtained:
[1] = biological target: T1, purified E. coli cyt bd-I oxidase (Escherichia coli, UniProt P0ABJ9); assay: biochemical; settings: for remaining activity at 250 µM: read-out: Residual activity for oxygen reduction, Cytochrome bd-I
T1 construct: made in house; host or cells: E. coli C43(DE3) Δbo3 with plasmid pet17b-cydABX-StrepII
Procedure: (§1) The inhibitory effect of a set of HNQs was screened in micromolar range to identify selective cyt bo3 and cyt bd‐I inhibitors. Oxygen reduction was measured via a Clark‐type electrode. Turnover rates of cyt bo3 and bd‐I experiments are presented as relative activities (Figure 1). For experimental overview and further information see Supporting Information (Figures S38–S40), Tables S2–3). Activity of cyt bo 3 was strongly (>50 %) reduced by HNQ‐1, ‐2, ‐6, ‐7 and ‐12. […]. Overall, the E. coli bd‐I‐type oxidase was less sensitive to the majority of examined compounds. […]; HNQ‐12: 56 %).
(§2) Figure 1 Screening of the inhibition potentials of tested hydroxynaphthoquinones (HNQ) on the oxidase reduction activity of purified E. coli cytbo3 (white) and bd‐I (light gray) oxidase. Inhibition assay using HNQs at 250 μM in the presence of 200 μM ubiquinone‐1 and 5 mM dithiothreitol. Oxygen reduction activity was calculated from oxygen consumption rates at 30 nM enzyme concentration at RT for each experiment. 100 % activity=adding corresponding volume of EtOH. KCN (20 μM) and HQNO (250 μM) represent positive inhibition controls for cyt bo3. The data are mean values of three independent experiments ± standard deviation.
(§3) Oxygen reductase activity measurements: Oxygen reductase activity was measured as oxygen consumption rate of purified protein by an OX‐MR Clark‐type oxygen electrode linked to a PA 2000 picoammeter and to an ADC‐216 for analog to digital conversion. Recording of data with SensorTrace Basic 2.1 software (all Unisense, Denmark).
(§4) Measurements were performed at room temperature in stirred 2 mL – glass vials with a total reaction volume of 600 μL. Oxygen consumption was initiated by adding 30 nM of the respective enzyme to the equilibrated mixture containing 20 mM NaPi (pH 8.0), 50 mM NaCl, 0.02 % DDM, 5 mM dithiothreitol (DTT) and 200 μM Ubiquinone‐1 (2,3‐dimethoxy‐5‐methyl‐6‐(3‐methylbut‐2‐en‐1‐yl)‐1,4‐benzoquinone). Equilibration was done for 10 min prior to enzyme addition. Inhibition experiments with 250 μM of respective HNQ from 20 mM stock solution in EtOH before equilibration. Data analysis and visualization with Origin Lab Pro 9.5 (Additive GmbH, Germany). HQNO (2‐heptyl‐4‐quinolinol 1‐oxide) was purchased from biomol GmbH, Hamburg. Determination of apparent k i (k i ^app) was performed under the same conditions but with a range of inhibitor concentrations from 1000 μM to 0.2 μM. The k i ^app value was adopted as the EC50 from the sigmoidal DoseResp Fit. Further information can be found in Figures S40–S43.

[2] = biological target: T2, purified E. coli cyt bo3 oxidase (Escherichia coli, UniProt P0ABI8); assay: biochemical; settings: for inhibition at 250 µM: read-out: inhibition (reduction) of cyt bo3 activity; for remaining activity at 250 µM: read-out: Residual activity for oxygen reduction, Cytochrome bo3
T2 construct: made in house; host or cells: E. coli strain GO195 with plasmid pIRHisA
Procedure: as §1, §2, §3, §4

[3] = absorbance-based thermodynamic equilibrium solubility assay; assay type: physicochemical; settings: buffer 20 mM NaPi, 50 mM NaCl, 0.02 % DDM, pH 8.0, room temperature; for solubility at 1 day: sodium phosphate buffer
Procedure: To meet the requirements for further functional investigations, the solubilities of the HNQ compounds were determined by an absorbance‐based thermodynamic equilibrium solubility assay.36 As shown in Scheme 3a, plotting absorbance over concentration at the wavelength of the maximum peak of the absorbance spectra, (HNQ‐2 at λ=274 nm), provides a saturation point at 1.26±0.03 mM (solubility graphs for all HNQ compounds are shown in Figure S37). […]. Therefore, all twelve HNQ compounds are feasible for further functional studies.
Solubility assay: Thermodynamic equilibrium solubility of HNQ compounds was determined in sodium phosphate buffer containing 20 mM NaPi, 50 mM NaCl, 0.02 % DDM at pH 8.0. All steps were performed at room temperature following the method by Bharate and Vishwakarma.36 Measurements were done in triplicates. HNQ compounds were dissolved in a particular amount of methanol or CH2Cl2 (HNQ‐9) needed for complete dissolving. Required volumes of these methanol stock solutions were transferred in 1.5 mL reaction tubes (0.1–600 μL dependent on compound and stock concentration) to get a concentration row. After 24–48 h complete evaporation of methanol or CH2Cl2 was accomplished. Remaining solid compounds were dissolved by adding 100/200 μL of sodium phosphate buffer to the reaction tubes, which were shaken at 200 rpm for one day for equilibration. Next day, centrifugation of the reaction tubes for 30 min at 13 000 rpm at 11000 g. 50/100 μL of supernatant were pipetted into a 96‐well plate (UV‐Star, Greiner), and absorbance spectra were recorded for each well with a TECAN Spark plate reader (Tecan Trading AG, Switzerland). By plotting absorbance at λ max against concentration [mM] of the compound, saturation point of graph indicates the thermodynamic equilibrium solubility. Data analysis and visualization with SigmaPlot Pro 12.5 (Systat Software GmbH, Germany).

cyt bo3 = biological target: T3, cyt bo3 (Escherichia coli, UniProt P0ABI8); settings: steady state kinetic experiments; read-out: kiapp; cited from earlier work
T3 construct: made in house; host or cells: E. coli strain GO195 with plasmid pIRHisA

[4] = HNQ 250 μM, 200 μM ubiquinone-1
[5] = inhibitor 250 µM, 200 μM ubiquinone-1, 5 mM DTT, 30 nM enzyme, RT, mean of three ± SD, 100 % = EtOH
[6] = aqueous with cosolvent or surfactant or cyclodextrin, thermodynamic from solid
[7] = inhibitor 250 µM, 200 μM ubiquinone-1, 5 mM DTT, 30 nM enzyme, RT, mean of three ± SD, 100 % = EtOH, listed as HNQ-4

T2 sequence (P0ABJ1 25-315): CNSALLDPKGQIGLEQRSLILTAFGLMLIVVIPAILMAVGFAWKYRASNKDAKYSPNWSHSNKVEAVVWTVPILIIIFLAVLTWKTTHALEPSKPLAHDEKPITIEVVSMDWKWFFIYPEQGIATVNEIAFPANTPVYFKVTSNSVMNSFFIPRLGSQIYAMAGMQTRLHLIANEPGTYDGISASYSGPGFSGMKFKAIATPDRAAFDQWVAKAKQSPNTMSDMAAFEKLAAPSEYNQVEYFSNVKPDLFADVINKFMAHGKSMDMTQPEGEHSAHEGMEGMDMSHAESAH
T2 sequence (P0ABJ3 whole entry, further chain): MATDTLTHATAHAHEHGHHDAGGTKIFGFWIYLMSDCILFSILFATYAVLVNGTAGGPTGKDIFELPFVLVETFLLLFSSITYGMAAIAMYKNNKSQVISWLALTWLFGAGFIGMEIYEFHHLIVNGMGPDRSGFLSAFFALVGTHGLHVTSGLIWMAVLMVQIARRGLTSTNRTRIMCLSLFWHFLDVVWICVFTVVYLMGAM
T2 sequence (P0ABI8 whole entry): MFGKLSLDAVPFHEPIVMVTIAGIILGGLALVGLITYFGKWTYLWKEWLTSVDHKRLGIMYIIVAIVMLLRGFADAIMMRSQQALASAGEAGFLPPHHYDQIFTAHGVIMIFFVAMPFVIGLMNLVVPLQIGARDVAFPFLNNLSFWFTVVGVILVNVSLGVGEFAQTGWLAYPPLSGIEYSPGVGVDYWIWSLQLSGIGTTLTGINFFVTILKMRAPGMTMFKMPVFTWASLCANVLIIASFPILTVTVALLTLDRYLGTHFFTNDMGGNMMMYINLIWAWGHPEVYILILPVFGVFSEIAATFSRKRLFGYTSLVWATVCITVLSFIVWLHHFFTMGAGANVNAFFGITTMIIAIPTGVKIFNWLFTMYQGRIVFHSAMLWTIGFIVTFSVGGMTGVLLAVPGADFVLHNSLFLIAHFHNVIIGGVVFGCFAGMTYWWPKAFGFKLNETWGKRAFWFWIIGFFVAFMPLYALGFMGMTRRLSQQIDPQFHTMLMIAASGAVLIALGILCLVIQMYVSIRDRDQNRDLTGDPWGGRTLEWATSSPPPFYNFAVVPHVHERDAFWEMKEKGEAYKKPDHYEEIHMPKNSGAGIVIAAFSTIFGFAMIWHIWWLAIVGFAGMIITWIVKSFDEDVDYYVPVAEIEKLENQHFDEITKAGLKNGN
T2 sequence (P0ABJ6 whole entry, further chain): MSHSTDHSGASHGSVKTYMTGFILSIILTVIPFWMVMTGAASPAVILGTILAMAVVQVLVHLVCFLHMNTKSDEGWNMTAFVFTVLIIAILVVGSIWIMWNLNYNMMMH
T1 sequence (P56100 whole entry): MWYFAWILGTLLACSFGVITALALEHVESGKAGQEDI
T1 sequence (P0ABJ9 whole entry): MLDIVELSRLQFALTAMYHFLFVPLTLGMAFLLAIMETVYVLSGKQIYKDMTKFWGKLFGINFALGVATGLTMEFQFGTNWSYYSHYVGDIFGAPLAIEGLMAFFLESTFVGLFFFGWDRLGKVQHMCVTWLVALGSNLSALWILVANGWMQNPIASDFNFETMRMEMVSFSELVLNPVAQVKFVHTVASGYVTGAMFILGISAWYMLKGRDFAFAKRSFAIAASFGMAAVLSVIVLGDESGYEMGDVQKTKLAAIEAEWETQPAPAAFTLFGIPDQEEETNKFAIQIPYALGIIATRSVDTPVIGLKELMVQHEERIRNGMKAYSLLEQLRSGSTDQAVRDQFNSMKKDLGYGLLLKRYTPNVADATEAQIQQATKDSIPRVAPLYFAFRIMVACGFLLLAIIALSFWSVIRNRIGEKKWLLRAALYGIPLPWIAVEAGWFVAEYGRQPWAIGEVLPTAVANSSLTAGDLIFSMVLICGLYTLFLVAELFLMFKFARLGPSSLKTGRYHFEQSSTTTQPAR
T1 sequence (P0ABK2 whole entry, further chain): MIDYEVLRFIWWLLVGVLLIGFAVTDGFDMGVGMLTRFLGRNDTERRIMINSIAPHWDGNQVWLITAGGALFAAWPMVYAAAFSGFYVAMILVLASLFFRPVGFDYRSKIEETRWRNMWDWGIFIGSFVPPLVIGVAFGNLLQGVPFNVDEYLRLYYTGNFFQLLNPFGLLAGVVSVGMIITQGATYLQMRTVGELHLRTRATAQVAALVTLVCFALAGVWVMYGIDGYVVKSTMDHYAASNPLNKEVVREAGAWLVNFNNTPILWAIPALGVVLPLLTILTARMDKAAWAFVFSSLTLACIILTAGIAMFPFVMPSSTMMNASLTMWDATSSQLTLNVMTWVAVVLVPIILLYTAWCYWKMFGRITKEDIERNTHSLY
T3 sequence (P0ABJ1 25-315): as the sequence (P0ABJ1 25-315) above
T3 sequence (P0ABI8 whole entry): as the sequence (P0ABI8 whole entry) above
T3 sequence (P0ABJ3 whole entry, further chain): as the sequence (P0ABJ3 whole entry, further chain) above
T3 sequence (P0ABJ6 whole entry, further chain): as the sequence (P0ABJ6 whole entry, further chain) above

2‐Hydroxy‐3‐[(4‐phenoxybenzyl)methyl]‐1,4‐naphthoquinone [HNQ‐12]
inhibitory effect on cyt bd-I oxidase [1, 4]: 56% | Residual activity for oxygen reduction, Cytochrome bd-I [1, 5]: 43.8 ± 7% | inhibition (reduction) of cyt bo3 activity [2, 4]: > 50% | Residual activity for oxygen reduction, Cytochrome bo3 [2, 5]: 13.1 ± 7% | Solubility [3]: 1640±94 μg/mL and 4.6±0.3 mM

O=C1C(O)=C(Cc2ccc3c(c2)OCO3)C(=O)c2ccccc21 [HNQ‐6, 2‐Hydroxy‐3‐[(1,2‐methylenedioxybenz‐5 yl)methyl]‐1,4‐naphthoquinone]
remaining activity at 250 µM [1, 5]: 109 ± 13% | inhibition at 250 µM [2, 4]: > 50% | Residual activity for oxygen reduction, Cytochrome bo3 [2, 5]: < 30% | remaining activity at 250 µM [2, 5]: 27.3 ± 13% | solubility at 1 day [3, 6]: 400 µg/mL and 780 µM

O=C1C(O)=C(C(c2nc3ccccc3s2)N2CCC[C@H]2C(=O)O)C(=O)c2ccccc21 (stereo partly drawn) [HNQ‐11, 2‐Hydroxy‐3‐[(2‐thiazol(2‐3)benzyl)methyl)pyrrolidine‐2‐carboxylic acid‐1,4‐naphthoquinone]
inhibitory effect on cyt bd-I activity (in words) ([1]; HNQ 250 μM): could not show an influence | inhibitory effect on cyt bd-I oxidase [1, 4]: < 30% | remaining activity at 250 µM [1, 5]: 111 ± 13% | inhibitory effect on cyt bo3 activity (in words) ([2]; HNQ 250 μM): could not show an influence | inhibition at 250 µM [2, 4]: < 30% | remaining activity at 250 µM [2, 5]: 115 ± 13% | solubility at 1 day [3, 6]: 800 µg/mL and 1840 µM

CCCCCCCCCCCCCC1=C(O)C(=O)c2ccccc2C1=O [HNQ‐1, 2‐Hydroxy‐3‐tridecyl‐1,4‐naphthoquinone]
inhibitory effect on cyt bd-I oxidase [1, 4]: 30% | remaining activity at 250 µM [1, 5]: 70.2 ± 12% | inhibition at 250 µM [2, 4]: > 50% | remaining activity at 250 µM [2, 5]: 2.64 ± 12% | solubility at 1 day [3, 6]: 335 µg/mL and 1020 µM

O=C1C(O)=C(Cc2ccccc2)C(=O)c2ccccc21 [HNQ‐2, 2‐Hydroxy‐3‐methylene‐(benzyl)‐1,4‐naphthoquinone]
inhibitory effect on cyt bd-I activity (in words) ([1]; HNQ 250 μM): not influencing | remaining activity at 250 µM [1, 5]: 107 ± 6% | inhibitory effect on cyt bo3 activity (in words) ([2]; HNQ 250 μM): strong inhibitory effect | inhibition at 250 µM [2, 4]: > 50% | remaining activity at 250 µM [2, 5]: 21.8 ± 6% | Solubility ([3]; aqueous with cosolvent or surfactant or cyclodextrin, thermodynamic from solid, read-out: Solubility): 334 µg/mL and 1260 µM

CN(C)c1ccc(CC2=C(O)C(=O)c3ccccc3C2=O)cc1 [HNQ‐4, 2‐Hydroxy‐3‐methylen‐(4‐N,N ‐dimethylanilid)‐1,4 naphthoquinone]
inhibitory effect on cyt bd-I oxidase [1, 4]: < 30% | Residual activity for oxygen reduction, Cytochrome bd-I [1, 5]: 15% | Residual activity for oxygen reduction, Cytochrome bd-I [1, 7]: 84.2 ± 11% | inhibition at 250 µM [2, 4]: < 30% | Residual activity for oxygen reduction, Cytochrome bo3 [2, 5]: 15% | Residual activity for oxygen reduction, Cytochrome bo3 [2, 7]: 84.8 ± 11% | solubility at 1 day [3, 6]: 267 µg/mL and 870 µM

O=C1C(O)=C(Cc2c[nH]c3ncccc23)C(=O)c2ccccc21 [HNQ‐8, 2‐Hydroxy‐3‐[(1H‐pyrrolo(2,3‐b)pyridine‐3‐yl)methyl]‐1,4‐naphthoquinone]
inhibitory effect on cyt bd-I activity (in words) ([1]; HNQ 250 μM): could not show an influence | inhibitory effect on cyt bd-I oxidase [1, 4]: < 30% | remaining activity at 250 µM [1, 5]: 106 ± 5% | inhibitory effect on cyt bo3 activity (in words) ([2]; HNQ 250 μM): could not show an influence | remaining activity at 250 µM [2, 5]: 101 ± 5% | solubility at 1 day [3, 6]: > 3140 µg/mL and > 10300 µM

CCCCCCCc1cc(O)c2ccccc2[n+]1[O-] [HQNO, 2‐heptyl‐4‐quinolinol 1‐oxide, reference compound]
remaining activity at 250 µM [1, 5]: 9.05 ± 1% | remaining activity at 250 µM [2, 5]: 4.42 ± 6% | Ki (cyt bo3): 700 nM

O=C1C(O)=C(Cc2ccncc2)C(=O)c2ccccc21 [HNQ‐3, 2‐Hydroxy‐3‐methylen‐(4‐N‐pyridyl)‐1,4‐naphthoquinone]
inhibitory effect on cyt bd-I activity (in words) ([1]; HNQ 250 μM): activity remains unaffected | inhibitory effect on cyt bd-I oxidase [1, 4]: < 30% | remaining activity at 250 µM [1, 5]: 110 ± 12% | inhibitory effect on cyt bo3 activity (in words) ([2]; HNQ 250 μM): activity remains unaffected | inhibition at 250 µM [2, 4]: < 30% | remaining activity at 250 µM [2, 5]: 99.5 ± 12% | solubility at 1 day [3, 6]: 627 µg/mL and 2360 µM

2‐Hydroxy‐3‐[(3,5‐dihydroxybenzyl)methyl]‐1,4‐naphthoquinone [HNQ‐10]
Residual activity for oxygen reduction, Cytochrome bd-I [1, 5]: 107 ± 8% | inhibition (reduction) of cyt bo3 activity [2, 4]: 31% | Residual activity for oxygen reduction, Cytochrome bo3 [2, 5]: 69.1 ± 8% | Solubility [3]: 840±151 μg/mL and 2.1±0.4 mM

O=C1C(O)=C(Cc2ccc3[nH]ncc3c2)C(=O)c2ccccc21 [HNQ‐5, 2‐Hydroxy‐3‐[(indazol‐5‐yl)methyl]‐1,4‐naphthoquinone]
remaining activity at 250 µM [1, 5]: 117 ± 7% | inhibition at 250 µM [2, 4]: 40% | remaining activity at 250 µM [2, 5]: 59.9 ± 7% | solubility at 1 day [3, 6]: 1670 µg/mL and 5500 µM

2‐Hydroxy‐3‐[(ferreocenyl)methyl]‐1,4‐naphthoquinone [HNQ‐9]
Residual activity for oxygen reduction, Cytochrome bd-I [1]: 110 ± 17% | inhibitory effect on cyt bd-I oxidase [1]: < 30% | Residual activity for oxygen reduction, Cytochrome bo3 [2]: 84.4 ± 17% | inhibition (reduction) of cyt bo3 activity [2]: < 30% | Solubility [3]: >8.3 mM

COc1cc(CC2=C(O)C(=O)c3ccccc3C2=O)ccc1O [HNQ‐7, 2‐Hydroxy‐3‐[(4‐hydroxy‐3‐methoxyphenyl)methyl]‐1,4‐naphthoquinone]
remaining activity at 250 µM [1, 5]: 106 ± 7% | inhibition at 250 µM [2, 4]: > 50% | Residual activity for oxygen reduction, Cytochrome bo3 [2, 5]: < 50% | remaining activity at 250 µM [2, 5]: 49.5 ± 7% | solubility at 1 day [3, 6]: > 2680 µg/mL and > 8300 µM
